Experimental data taken from patent US10143719B2, “Inhibitors of valosin-containing protein and methods of use” (CASE WESTERN RESERVE UNIVERSITY, priority 2015, dated 2018).
Residues, ends and D or L forms follow the SMILES beside them. *: point of attachment. Cbz = O=C(OCc1ccccc1)*

Tested on: Htt or mtHtt
Experiment: Htt/mtHtt protein levels after proteasome or VCP inhibitor
Assay type: cell-based, mouse
Settings: HdhQ or HdhQ111 cells
Source text: VCP plays a central role in protein degradation by binding to its substrates.

Row | SMILES | Htt or mtHtt protein levels
1 | CC1(C)C(N(O)C(=O)Nc2ccc(Cl)cc2)N(c2ccc(Cl)cc2)C(=O)N1CC(=O)N/N=C/C=C/c1ccc([N+](=O)[O-])o1 (centres unmarked) [Eeyarestatin I] | did not affect Htt or mtHtt protein levels
2 | CC(C)C[C@@H](C=O)NC(=O)[C@H](CC(C)C)NC(=O)[C@H](CC(C)C)NC(=O)OCc1ccccc1 [MG132] (Cbz-Leu-Leu-Leu-aldehyde) | did not affect Htt or mtHtt protein levels
